Test results as given in PMC7413254 (Nature Communications, 2020).
Read-outs that look alike come from different tables or passages of the source.

Experiments:
PfCRT^Dd2 = PfCRT^Dd2 (Plasmodium falciparum, UniProt Q9N623, A220S/I356T/K76T/M74I/N326S/N75E/Q271E/R371I); test: [3H]CQ uptake into Xenopus oocytes, cis-inhibition by unlabelled solute; type: cell-based
Summary of the method: (§1)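 PfCRT-expressing and control oocytes: ND96 pH 5.5 → 1.5 h at 27.5 °C → ice-cold ND96 wash → 10% SDS lysis → scintillation count.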

PfCRT^Ecu1110 = PfCRT^Ecu1110 (Plasmodium falciparum, UniProt Q9N623, A220S/I356L/K76T/N326D); test: as above; type: cell-based
Summary of the method: as §1

non-expressing oocytes = test: cells; type: cell-based, Xenopus laevis; conditions: Xenopus laevis, total [3H]CQ transport; for inhibition at 500 µM: [test solute] = 0.5 mM; for inhibition at 1000 µM: [test solute] = 1 mM; for inhibition at 2000 µM: [test solute] = 2 mM
Summary of the method: as §1

PfCRT = test: Influx of VF-6 via PfCRT into the oocyte, solutes tested as potential co-substrates; type: cell-based, Plasmodium falciparum; parameters: key: X: Compounds that have been tested as potential co-substrates but are not required for influx of VF-6 via PfCRT into the oocyte; conditions: X marks the solute
PfCRT^3D7 = PfCRT^3D7 (Plasmodium falciparum, UniProt Q8IBZ9); test: cell-based; type: cell-based
Summary of the method: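 Transport measured in Xenopus oocytes expressing the transporters, 1.5 h at 27.5 °C in ND96 pH 5.5 unless noted. For trans-stimulation, VF-6 injected in 25 nL ND96 at pH 5.0–7.0 or Na^+-free (choline) buffer; intracellular levels based on ~400 nL oocyte volume. Ten oocytes per treatment, ≥4 experiments.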

[1] = read-out: PfCRT-mediated [3H]CQ transport, cis-inhibition (% PfCRTDd2 control)
[2] = read-out: Uptake of [3H]CQ (% PfCRTDd2 control), cis-inhibition
[3] = read-out: Uptake of [3H]CQ (% PfCRTDd2 control), cis-inhibition, PfCRTDd2, SEM
[4] = read-out: [3H]CQ transport (% PfCRTDd2 control), cis-inhibition, PfCRTDd2, SEM
[5] = read-out: PfCRT-mediated [3H]CQ transport, cis-inhibition (% PfCRTEcu1110 control)
[6] = read-out: Uptake of [3H]CQ (% PfCRTDd2 control), cis-inhibition, PfCRTEcu1110, SEM
[7] = read-out: Uptake of [3H]CQ (% PfCRTEcu1110 control), cis-inhibition
[8] = read-out: [3H]CQ transport (% PfCRTEcu1110 control), cis-inhibition, PfCRTEcu1110, SEM
[9] = Oocyte, mean ± SEM, SEM, read-out: Uptake of [3H]CQ (% PfCRTDd2 control), cis-inhibition, non-expressing oocytes
[10] = non-expressing oocytes, normalised to the oocyte type control, read-out: Uptake of [3H]CQ (% non-expressing oocyte control), cis-inhibition

PfCRT^Dd2, sequence (Q9N623 whole entry A220S/I356T/K76T/M74I/N326S/N75E/Q271E/R371I): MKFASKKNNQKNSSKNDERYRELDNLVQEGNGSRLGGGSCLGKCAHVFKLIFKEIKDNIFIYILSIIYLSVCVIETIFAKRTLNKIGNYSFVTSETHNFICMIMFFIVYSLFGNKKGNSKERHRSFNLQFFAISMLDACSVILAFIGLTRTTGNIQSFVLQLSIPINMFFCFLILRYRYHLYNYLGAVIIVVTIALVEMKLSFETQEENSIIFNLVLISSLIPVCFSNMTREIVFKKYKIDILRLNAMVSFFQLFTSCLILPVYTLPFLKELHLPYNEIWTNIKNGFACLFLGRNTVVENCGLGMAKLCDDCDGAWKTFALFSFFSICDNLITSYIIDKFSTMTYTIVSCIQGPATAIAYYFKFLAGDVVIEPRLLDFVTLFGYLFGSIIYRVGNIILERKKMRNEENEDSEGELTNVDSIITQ
PfCRT^Ecu1110, sequence (Q9N623 whole entry A220S/I356L/K76T/N326D): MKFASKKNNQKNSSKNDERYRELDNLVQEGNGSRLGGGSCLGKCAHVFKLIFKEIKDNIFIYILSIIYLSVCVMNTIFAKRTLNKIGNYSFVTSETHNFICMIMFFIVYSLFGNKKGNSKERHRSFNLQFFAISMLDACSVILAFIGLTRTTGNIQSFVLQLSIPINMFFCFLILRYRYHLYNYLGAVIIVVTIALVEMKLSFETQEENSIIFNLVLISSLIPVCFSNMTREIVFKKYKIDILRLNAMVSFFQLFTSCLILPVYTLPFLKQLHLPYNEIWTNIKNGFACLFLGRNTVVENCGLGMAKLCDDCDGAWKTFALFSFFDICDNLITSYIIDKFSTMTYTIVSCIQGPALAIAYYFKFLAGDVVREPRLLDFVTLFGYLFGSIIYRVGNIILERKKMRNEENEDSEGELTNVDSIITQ
PfCRT^3D7, sequence (Q8IBZ9 59-398): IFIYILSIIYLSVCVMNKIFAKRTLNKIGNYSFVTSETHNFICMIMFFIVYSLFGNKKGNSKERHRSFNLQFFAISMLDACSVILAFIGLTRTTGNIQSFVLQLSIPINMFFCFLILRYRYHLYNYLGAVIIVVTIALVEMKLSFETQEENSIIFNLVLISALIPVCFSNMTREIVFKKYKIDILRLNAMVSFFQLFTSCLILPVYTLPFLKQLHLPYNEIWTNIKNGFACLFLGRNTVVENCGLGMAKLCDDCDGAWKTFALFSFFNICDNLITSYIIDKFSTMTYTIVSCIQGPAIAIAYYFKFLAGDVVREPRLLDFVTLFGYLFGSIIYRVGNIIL

## N[C@@H](CS)C(=O)O [L-cysteine]
PfCRT^Dd2; [1]
  inhibition at 500 µM: 94 ± 4.1%
  inhibition at 1000 µM: 95 ± 3.6%
  inhibition at 2000 µM: 95 ± 2.8%
PfCRT^Dd2; [2]
  inhibition at 500 µM: 97 ± 9.2%
  inhibition at 2000 µM: 97 ± 3.1%
PfCRT^Dd2; [3]
  inhibition at 500 µM: 97 ± 9.2%
  inhibition at 1000 µM: 96 ± 3.5%
  inhibition at 2000 µM: 97 ± 3.1%
PfCRT^Dd2; [4]
  inhibition at 1000 µM: 95 ± 3.6%
  inhibition at 2000 µM: 95 ± 2.8%
PfCRT^Ecu1110; [5]
  inhibition at 500 µM: 94 ± 1.6%
  inhibition at 1000 µM: 87 ± 2.6%
  inhibition at 2000 µM: 98 ± 4.5%
PfCRT^Ecu1110; [6]
  inhibition at 500 µM: 31 ± 1%
  inhibition at 1000 µM: 29 ± 1.5%
  inhibition at 2000 µM: 33 ± 1.4%
PfCRT^Ecu1110; [7]
  inhibition at 500 µM: 95 ± 4.2%
  inhibition at 1000 µM: 89 ± 5.5%
  inhibition at 2000 µM: 100 ± 7.1%
PfCRT^Ecu1110; [8]
  inhibition at 500 µM: 28 ± 1.1%
  inhibition at 1000 µM: 26 ± 1.5%
  inhibition at 2000 µM: 30 ± 1.7%
non-expressing oocytes; [9]
  inhibition at 500 µM: 2.1 ± 0.08%
  inhibition at 1000 µM: 3.4 ± 0.01%
  inhibition at 2000 µM: 2.3 ± 0.1%
non-expressing oocytes; [10]
  inhibition at 500 µM: 99 ± 5.3%
  inhibition at 1000 µM: 100 ± 4.6%
  inhibition at 2000 µM: 99 ± 3.5%
PfCRT
  Compounds that have been tested as potential co-substrates but are not required for influx of VF-6 via PfCRT into the oocyte: X
PfCRT^3D7; PfCRT3D7 oocytes, [test solute]i = 5 mM, total [3H]CQ transport, normalised to the oocyte type control, read-out: Uptake of [3H]CQ (% PfCRT3D7 control), trans-stimulation
  activity at 5000 µM: 100 ± 2.4%
PfCRT^3D7; SEM
  [3H]CQ transport (% PfCRT3D7 control), trans-stimulation, PfCRT3D7: 0.3 ± 0.02 % PfCRT3D7 control
